Results as given in patent publication US9505786B2, “Substituted annulated triazines and use thereof” (BAYER INTELLECTUAL PROPERTY GMBH, priority 2012, dated 2016).

Columns and labels:
aorta rings = test: Vasorelaxant effect in vitro (phenylephrine-contracted aorta rings); settings: Oryctolagus cuniculus, rabbit aorta rings, organ bath, phenylephrine contraction; read-out: IC50 (concentration needed to reduce the phenylephrine contraction by 50%)
Experimental: B-1. Vasorelaxant Effect In Vitro
Rabbits are stunned by a blow to the neck and exsanguinated. The aorta is removed, freed from adhering tissue and divided into rings of a width of 1.5 mm. The rings are placed individually under an initial tension in 5 ml organ baths with Krebs-Henseleit solution which is at 37° C., is gassed with carbogen and has the following composition (in each case mM): sodium chloride: 119; potassium chloride: 4.8; calcium chloride dihydrate: 1; magnesium sulphate heptahydrate: 1.4; potassium dihydrogenphosphate: 1.2; sodium bicarbonate: 25; glucose: 10. The contractile force is determined with Statham UC2 cells, amplified and digitalized using A/D transducers (DAS-1802 HC, Keithley Instruments Munich), and recorded in parallel on linear recorders.
To produce a contraction, phenylephrine is added to the bath cumulatively in increasing concentration. After several control cycles, the substance to be investigated is added in each further run in increasing dosage in each case, and the height of the contraction achieved is compared with the height of the contraction reached in the last preceding run. This is used to calculate the concentration needed to reduce the magnitude of the control value by 50% (IC50 value). The standard administration volume is 5 μl; the DMSO content in the bath solution corresponds to 0.1%.

[1] = system: recombinant guanylate cyclase reporter cell line; test: Effect on a recombinant guanylate cyclase reporter cell line; assay type: cell-based
Experimental: B-2. Effect on a Recombinant Guanylate Cyclase Reporter Cell Line
The cellular activity of the compounds according to the invention is determined using a recombinant guanylate cyclase reporter cell line, as described in F. Wunder et al., Anal. Biochem. 339, 104-112 (2005).

[2] = target: human phosphodiesterase 5 (PDE 5) (Homo sapiens (Human), UniProt O76074); test: Inhibition of human phosphodiesterase 5 (PDE 5), SPA assay; assay type: biochemical; settings: PDE 5 preparation from human platelets, [8-3H] cGMP substrate
Procedure, shortened: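 Enzyme partially purified from human platelets by Mono Q chromatography; [8-3H]cGMP substrate (0.025 μCi per well), enzyme diluted to keep conversion below 70%. Compounds 4 μM to 0.0018 μM final, 60 min at room temperature in Tris pH 7.5/MgCl2/EDTA; yttrium SPA bead read-out; IC50 from concentration–inhibition plot.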

IC50 (aorta rings) [nM]	IC50 [2] [nM]	Compound	MEC (minimum effective concentration) [1] [nM]
422	320	CC1(C)C(=O)Nc2nc(-c3nn(Cc4ccccc4F)c4ncc(F)cc34)nc(CNCC(F)(F)F)c21 [Example 57, 2-[5-Fluoro-1-(2-fluorobenzyl)-1H-pyrazolo[3,4-b]pyridin-3-yl]-5,5-dimethyl-4-{[(2,2,2-trifluoroethyl)amino]methyl}-5,7-dihydro-6H-pyrrolo[2,3-d]pyrimidin-6-one]	30
215	1300	NC1(C(F)(F)C(F)(F)F)C(=O)Nc2nc(-c3nn(Cc4ccccc4F)c4ncccc34)ncc21 (stereo not drawn) [Example 4, 5-Amino-2-[1-(2-fluorobenzyl)-1H-pyrazolo[3,4-b]pyridin-3-yl]-5-(pentafluoroethyl)-5,7-dihydro-6H-pyrrolo[2,3-d]pyrimidin-6-one]	100
2380	260	CC1(C)C(=O)Nc2nc(-c3nn(Cc4ccccc4F)c4ncccc34)nc(CCC3CC3)c21 [Example 17, 4-(2-Cyclopropylethyl)-2-[1-(2-fluorobenzyl)-1H-pyrazolo[3,4-b]pyridin-3-yl]-5,5-dimethyl-5,7-dihydro-6H-pyrrolo[2,3-d]pyrimidin-6-one]	100
677	580	Cc1cccc(Cn2nc(-c3nnc4c(n3)NC(=O)C4(C)C)c3cc(F)cnc32)c1F [Example 12, 3-[5-Fluoro-1-(2-fluoro-3-methylbenzyl)-1H-pyrazolo[3,4-b]pyridin-3-yl]-7,7-dimethyl-5,7-dihydro-6H-pyrrolo[2,3-e][1,2,4]triazin-6-one]	100
4210	1600	Cn1nc(C(F)(F)F)cc1-c1nc(-c2nn(Cc3ccccc3F)c3ncccc23)nc2c1C(C)(C)C(=O)N2 [Example 41, 2-[1-(2-Fluorobenzyl)-1H-pyrazolo[3,4-b]pyridin-3-yl]-5,5-dimethyl-4-[1-methyl-3-(trifluoromethyl)-1H-pyrazol-5-yl]-5,7-dihydro-6H-pyrrolo[2,3-d]pyrimidin-6-one]	300
237	250	COc1cccc(Cn2nc(-c3nnc4c(n3)NC(=O)C4(C)C)c3cc(F)cnc32)c1F [Example 11, 3-[5-Fluoro-1-(2-fluoro-3-methoxybenzyl)-1H-pyrazolo[3,4-b]pyridin-3-yl]-7,7-dimethyl-5,7-dihydro-6H-pyrrolo[2,3-e][1,2,4]triazin-6-one]	300
91	690	Cc1cc(-c2nc(-c3nn(Cc4ccccc4F)c4ncccc34)nc3c2C(C)(C)C(=O)N3)n(C)n1 [Example 38, 4-(1,3-Dimethyl-1H-pyrazol-5-yl)-2-[1-(2-fluorobenzyl)-1H-pyrazolo[3,4-b]pyridin-3-yl]-5,5-dimethyl-5,7-dihydro-6H-pyrrolo[2,3-d]pyrimidin-6-one]	30
37	1200	NC1(C(F)(F)F)C(=O)Nc2nc(-c3nn(Cc4ccccc4F)c4ncccc34)ncc21 (stereo not drawn) [Example 1, 5-Amino-2-[1-(2-fluorobenzyl)-1H-pyrazolo[3,4-b]pyridin-3-yl]-5-(trifluoromethyl)-5,7-dihydro-6H-pyrrolo[2,3-d]pyrimidin-6-one]	30
779	420	CC(C)Cc1nc(-c2nn(Cc3ccccc3F)c3ncccc23)nc2c1C(C)(C)C(=O)N2 [Example 29, 2-[1-(2-Fluorobenzyl)-1H-pyrazolo[3,4-b]pyridin-3-yl]-4-isobutyl-5,5-dimethyl-5,7-dihydro-6H-pyrrolo[2,3-d]pyrimidin-6-one]	100
